Measured values taken from patent US20250221410A1, “SUBSTITUTED 2-C-AZINES AND SALTS THEREOF, AND USE THEREOF AS HERBICIDAL ACTIVE SUBSTANCES” (BAYER AKTIENGESELLSCHAFT, priority 2022, published 2025).

Key:
Type in all cases: in vivo
[1] = system: MATIN: Matricaria inodora; experiment: Pre-emergence herbicide efficacy at 1280 g/ha, MATIN; settings: visual scoring after about 3 weeks vs untreated controls
From the text: Seeds of mono- and dicotyledonous weed plants were placed in plastic pots in sandy loam soil (doubly sown with one species each of mono- or dicotyledonous weed plants per pot) and covered with soil. The compounds of the invention, formulated in the form of wettable powders (WP) or as emulsion concentrates (EC), were then applied to the surface of the covering soil as aqueous suspension or emulsion with addition of 0.5% additive at a water application rate of 600 litres per hectare (converted). After the treatment, the pots were placed in a greenhouse and kept under good growth conditions for the test plants. After about 3 weeks, the efficacy of the preparations was scored visually in comparison with untreated controls as percentages. For example, 100% activity=the plants have died, 0% activity=like control plants. Tables C1 to C12 below show the effects of selected compounds of the general formula (I) according to Table 1 on various harmful plants and at an application rate corresponding to 1280 g/ha, which were obtained by the trial procedure specified above.

VERPE: Veronica persica [2] = experiment: Pre-emergence herbicide efficacy at 1280 g/ha, VERPE; settings: visual scoring vs untreated controls
Outline: (§1)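 Seeds sown in sandy loam in pots and covered; compounds as WP or EC applied to covering soil surface as aqueous suspension/emulsion with 0.5% additive at 600 L/ha water. Greenhouse growth ~3 weeks, then visual % efficacy vs untreated controls (100% = plants dead, 0% = like control).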

[3] = system: ECHCG: Echinochloa crus-galli; experiment: Post-emergence herbicidal efficacy at 1280 g/ha, ECHCG; settings: rated visually after about 3 weeks vs untreated controls, 100% = plants have died, 0% = like control plants
Protocol: (§2) Seeds of mono- and dicotyledonous weed plants were placed in plastic pots in sandy loam soil (doubly sown with in each case one species of mono- or dicotyledonous weed plants per pot), covered with soil and cultivated in a greenhouse under controlled growth conditions. 2 to 3 weeks after sowing, the test plants were treated at the one-leaf stage. The compounds of the invention, formulated in the form of wettable powders (WP) or as emulsion concentrates (EC), were applied to the green parts of the plants as aqueous suspension or emulsion with addition of 0.5% additive at a water application rate equivalent to 600 litres per hectare. After the test plants had been kept in the greenhouse under optimum growth conditions for about 3 weeks, the activity of the preparations was rated visually in comparison to untreated controls. For example, 100% activity=the plants have died, 0% activity=like control plants. Tables A1 to A12 below show the effects of selected compounds of the general formula (I) according to Table 1 on various harmful plants and at an application rate corresponding to 1280 g/ha, which were obtained by the trial procedure specified above.

[4] = system: DIGSA: Digitaria sanguinalis; experiment: Pre-emergence herbicide efficacy at 1280 g/ha, DIGSA; settings: visual scoring after about 3 weeks vs untreated controls
Outline: as §1

POAAN: Poa annua [5] = experiment: Pre-emergence herbicide efficacy at 1280 g/ha, POAAN; settings: visual scoring after about 3 weeks vs untreated controls
Outline: as §1

STEME: Stellaria media [6] = experiment: Post-emergence herbicidal efficacy at 1280 g/ha, STEME; settings: visual rating about 3 weeks after treatment vs untreated controls
Outline: (§3)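 Read-out is visual percent activity relative to untreated controls (100% = plants died, 0% = no effect), scored about 3 weeks after treatment. Application was post-emergence at the one-leaf stage in the greenhouse, as WP or EC in water with 0.5% additive at 600 L/ha.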

VERPE: Veronica persica [7] = experiment: Post-emergence herbicidal efficacy at 1280 g/ha, VERPE; settings: visual rating about 3 weeks after treatment vs untreated controls
Outline: as §3

[8] = system: ECHCG: Echinochloa crus-galli; experiment: Pre-emergence herbicide efficacy at 1280 g/ha, ECHCG; settings: visual scoring after about 3 weeks vs untreated controls
Outline: as §1

STEME: Stellaria media [9] = experiment: Pre-emergence herbicide efficacy at 1280 g/ha, STEME; settings: visual scoring vs untreated controls
Outline: as §1

[10] = system: AMARE: Amaranthus retroflexus; experiment: Post-emergence herbicidal efficacy at 1280 g/ha, AMARE; settings: rated visually after about 3 weeks vs untreated controls, 100% = plants have died, 0% = like control plants
Outline: as §3

KCHSC: Kochia scoparia [11] = experiment: Pre-emergence herbicide efficacy at 1280 g/ha, KCHSC; settings: visual scoring after about 3 weeks vs untreated controls
Outline: as §1

[12] = system: AMARE: Amaranthus retroflexus; experiment: Pre-emergence herbicide efficacy at 1280 g/ha, AMARE; settings: visual scoring after about 3 weeks vs untreated controls
Outline: as §1

[13] = system: ABUTH: Abutilon theophrasti; experiment: Post-emergence herbicidal efficacy at 1280 g/ha, ABUTH; settings: rated visually after about 3 weeks vs untreated controls, 100% = plants have died, 0% = like control plants
Outline: as §3

SETVI: Setaria viridis [14] = experiment: Pre-emergence herbicide efficacy at 1280 g/ha, SETVI; settings: visual scoring vs untreated controls
Outline: as §1

POAAN: Poa annua [15] = experiment: Post-emergence herbicidal efficacy at 1280 g/ha, POAAN; settings: visual rating about 3 weeks after treatment vs untreated controls
Outline: as §3

[16] = system: ABUTH: Abutilon theophrasti; experiment: Pre-emergence herbicide efficacy at 1280 g/ha, ABUTH; settings: visual scoring after about 3 weeks vs untreated controls
Outline: as §1

[17] = system: AMARE: Amaranthus retroflexus; experiment: Post-emergence herbicidal efficacy at 80 g/ha, AMARE; settings: visual rating about 3 weeks after treatment vs untreated controls
Protocol: (§4) Seeds of monocotyledonous and dicotyledonous weeds and crop plants were placed in sandy loam in plastic or organic planting pots, covered with soil and cultivated in a greenhouse under controlled growth conditions. 2 to 3 weeks after sowing, the test plants were treated at the one-leaf stage. The compounds of the invention, formulated in the form of wettable powders (WP) or as emulsion concentrates (EC), were then sprayed onto the green parts of the plants as aqueous suspension or emulsion with addition of 0.5% additive at a water application rate of 600 l/ha (converted). After the test plants had been kept in the greenhouse under optimum growth conditions for about 3 weeks, the activity of the preparations was rated visually in comparison to untreated controls. For example, 100% activity=the plants have died, 0% activity=like control plants. Tables B1 to B10 below show the effects of selected compounds of the general formula (I) according to Table 1 on various harmful plants and an application rate corresponding to 80 g/ha, which were obtained by the experimental procedure mentioned above.

[18] = system: AMARE: Amaranthus retroflexus; experiment: Pre-emergence herbicide efficacy at 80 g/ha, AMARE; settings: scored visually after about 3 weeks
From the text: Seeds of monocotyledonous and dicotyledonous weed plants and crop plants were placed in plastic or organic planting pots and covered with soil. The compounds of the invention, formulated in the form of wettable powders (WP) or as emulsion concentrates (EC), were then applied to the surface of the covering soil as aqueous suspension or emulsion with addition of 0.5% additive at a water application rate equivalent to 600 l/ha. After the treatment, the pots were placed in a greenhouse and kept under good growth conditions for the test plants. After about 3 weeks, the efficacy of the preparations was scored visually in comparison with untreated controls as percentages. For example, 100% activity=the plants have died, 0% activity=like control plants. Tables D1 to D12 below show the effects of selected compounds of the general formula (I) according to Table 1 on various harmful plants and an application rate corresponding to 80 g/ha, which were obtained by the experimental procedure mentioned above.

VERPE: Veronica persica [19] = experiment: Post-emergence herbicidal efficacy at 80 g/ha, VERPE; settings: visual rating about 3 weeks after treatment vs untreated controls
Protocol: as §4

KCHSC: Kochia scoparia [20] = experiment: Post-emergence herbicidal efficacy at 1280 g/ha, KCHSC; settings: visual rating about 3 weeks after treatment vs untreated controls
Outline: as §3

[21] = system: DIGSA: Digitaria sanguinalis; experiment: Post-emergence herbicidal efficacy at 1280 g/ha, DIGSA; settings: rated visually after about 3 weeks vs untreated controls, 100% = plants have died, 0% = like control plants
Protocol: as §2

SETVI: Setaria viridis [22] = experiment: Post-emergence herbicidal efficacy at 1280 g/ha, SETVI; settings: visual rating about 3 weeks after treatment vs untreated controls
Outline: as §3

Compound | Pre-emergence efficacy against MATIN [1] [%] | Pre-emergence efficacy against VERPE in % (VERPE: Veronica persica [2]) [%] | Post-emergence efficacy at 1280 g/ha against ECHCG in % [3] [%] | Pre-emergence efficacy against DIGSA [4] [%] | Pre-emergence efficacy against POAAN (POAAN: Poa annua [5]) [%] | Post-emergence efficacy against STEME (STEME: Stellaria media [6]) [%] | Post-emergence efficacy against VERPE (VERPE: Veronica persica [7]) [%] | Pre-emergence efficacy against ECHCG [8] [%] | Pre-emergence efficacy against STEME in % (STEME: Stellaria media [9]) [%] | Post-emergence efficacy at 1280 g/ha against AMARE in % [10] [%] | Pre-emergence efficacy against KCHSC (KCHSC: Kochia scoparia [11]) [%] | Pre-emergence efficacy against AMARE [12] [%] | Post-emergence efficacy at 1280 g/ha against ABUTH in % [13] [%] | Pre-emergence efficacy against SETVI in % (SETVI: Setaria viridis [14]) [%] | Post-emergence efficacy against POAAN (POAAN: Poa annua [15]) [%] | Pre-emergence efficacy against ABUTH [16] [%] | Pre-emergence efficacy against AMARE in % [18] [%] | Post-emergence efficacy against VERPE (VERPE: Veronica persica [19]) [%] | Post-emergence efficacy against KCHSC (KCHSC: Kochia scoparia [20]) [%] | Post-emergence efficacy at 1280 g/ha against DIGSA in % [21] [%] | further results
FC(F)(F)c1cnn(-c2ccccc2Cc2ncc(Cl)cn2)c1 [Example 1-42] | 90 | 90 | 90 | 100 | 90 | 90 | 90 | 90 | 100 | 100 | 100 | 100 | 90 | 100 | 90 | 100 | – | – | – | – | –
O=S(=O)(CCC(F)(F)F)Oc1c(F)cccc1Cc1ncc(Br)cn1 [Example 1-187] | – | – | – | – | – | – | – | – | – | – | – | – | – | – | – | – | 100 | 90 | – | – | Post-emergence efficacy against AMARE [17]: 90%
Fc1ccc(Sc2ccccc2Cc2ncc(F)cn2)cc1 [Example 1-104] | 100 | 100 | 100 | 100 | 100 | 100 | 100 | 100 | 100 | 100 | – | 100 | 100 | 100 | 100 | 100 | – | – | 100 | 100 | Post-emergence efficacy against SETVI (SETVI: Setaria viridis [22]): 90%
Cc1cccc(Cc2ncc(Cl)cn2)c1OS(=O)(=O)CCC(F)(F)F [Example 1-189] | – | – | – | – | – | – | – | – | – | – | – | – | – | – | – | – | 80 | 90 | – | – | –
Clc1ccc(Cc2ccccc2Oc2ncc(Cl)cn2)nc1 [Example 1-91] | 100 | 100 | – | 100 | 100 | 100 | 100 | 90 | 100 | 100 | 100 | 100 | 100 | 100 | 100 | 100 | – | – | 100 | 90 | Post-emergence efficacy against SETVI (SETVI: Setaria viridis [22]): 90%
